Experimental data published in ChEMBL document CHEMBL2413076, “Synthesis and biological evaluation of ursolic acid-triazolyl derivatives as potential anti-cancer agents” (Eur J Med Chem, 2013).

Legend:
[1] = Growth inhibition of human FR2 cells after 48 hrs by sulforhodamine-B assay; assay type: cell-based; settings: FR2, 48 h
MCF7 [2] = assay: Growth inhibition of human MCF7 cells assessed as dead cells at 10 uM after 48 hrs by sulforhodamine-B assay relative to control; assay type: functional; settings: MCF7, 48 h, read-out: GI
A549 [3] = assay: Growth inhibition of human A549 cells assessed as dead cells at 10 uM after 48 hrs by sulforhodamine-B assay relative to control; assay type: functional; settings: A549, 48 h, read-out: GI
[4] = Growth inhibition of human FR2 cells assessed as dead cells at 50 uM after 48 hrs by sulforhodamine-B assay relative to control; assay type: cell-based; settings: read-out: GI
[5] = Growth inhibition of human FR2 cells assessed as dead cells at 10 uM after 48 hrs by sulforhodamine-B assay relative to control; assay type: cell-based; settings: read-out: GI
THP-1 [6] = assay: Growth inhibition of human THP1 cells assessed as dead cells at 10 uM after 48 hrs by sulforhodamine-B assay relative to control; assay type: functional; settings: THP-1, 48 h, read-out: GI
MCF7 [7] = assay: Growth inhibition of human MCF7 cells after 48 hrs by sulforhodamine-B assay; assay type: functional, cell-based; settings: MCF7, 48 h
A549 [8] = assay: Growth inhibition of human A549 cells assessed as dead cells at 50 uM after 48 hrs by sulforhodamine-B assay relative to control; assay type: functional; settings: A549, 48 h, read-out: GI
HCT-116 [9] = assay: Growth inhibition of human HCT116 cells assessed as dead cells at 10 uM after 48 hrs by sulforhodamine-B assay relative to control; assay type: functional; settings: HCT-116, 48 h, read-out: GI
THP-1 [10] = assay: Growth inhibition of human THP1 cells after 48 hrs by sulforhodamine-B assay; assay type: functional, cell-based; settings: THP-1, 48 h
THP-1 [11] = assay: Growth inhibition of human THP1 cells assessed as dead cells at 50 uM after 48 hrs by sulforhodamine-B assay relative to control; assay type: functional; settings: THP-1, 48 h, read-out: GI
MCF7 [12] = assay: Growth inhibition of human MCF7 cells assessed as dead cells at 50 uM after 48 hrs by sulforhodamine-B assay relative to control; assay type: functional; settings: MCF7, 48 h, read-out: GI
HCT-116 [13] = assay: Growth inhibition of human HCT116 cells assessed as dead cells at 50 uM after 48 hrs by sulforhodamine-B assay relative to control; assay type: functional; settings: HCT-116, 48 h, read-out: GI
A549 [14] = assay: Growth inhibition of human A549 cells after 48 hrs by sulforhodamine-B assay; assay type: functional, cell-based; settings: A549, 48 h
HCT-116 [15] = assay: Growth inhibition of human HCT116 cells after 48 hrs by sulforhodamine-B assay; assay type: functional, cell-based; settings: HCT-116, 48 h

Row | Compound | IC50 [1] [µM] | inhibition of growth at 10 µM (MCF7 [2]) [%] | inhibition of growth at 10 µM (A549 [3]) [%] | inhibition at 48 h, 50 µM [4] [%] | inhibition at 48 h, 10 µM [5] [%] | inhibition of growth at 10 µM (THP-1 [6]) [%] | IC50 (MCF7 [7]) [µM] | inhibition of growth at 50 µM (A549 [8]) [%] | inhibition of growth at 10 µM (HCT-116 [9]) [%] | IC50 (THP-1 [10]) [µM] | inhibition of growth at 50 µM (THP-1 [11]) [%] | inhibition of growth at 50 µM (MCF7 [12]) [%] | inhibition of growth at 50 µM (HCT-116 [13]) [%] | IC50 (A549 [14]) [µM] | IC50 (HCT-116 [15]) [µM]
1 | C[C@H]1[C@H](C)CC[C@]2(C(=O)OCc3cn(-c4ccc(CC#N)cc4)nn3)CC[C@]3(C)C(=CC[C@@H]4[C@@]5(C)CCC(=O)C(C)(C)[C@@H]5CC[C@]43C)[C@H]12 | 46 | 17 | 13 | 46 | 14 | 32 | 79 | 26 | 44 | 37 | 55 | 34 | 67 | > 100 | 19
2 | C[C@H]1[C@H](C)CC[C@]2(C(=O)OCc3cn(-c4ccc(F)cc4)nn3)CC[C@]3(C)C(=CC[C@@H]4[C@@]5(C)CCC(=O)C(C)(C)[C@@H]5CC[C@]43C)[C@H]12 | – | – | – | – | – | – | – | 3 | – | – | 2 | 4 | 3 | – | –
3 | C[C@H]1[C@H](C)CC[C@]2(C(=O)OCc3cn(-c4ccccc4I)nn3)CC[C@]3(C)C(=CC[C@@H]4[C@@]5(C)CCC(=O)C(C)(C)[C@@H]5CC[C@]43C)[C@H]12 | 35 | 54 | 43 | 56 | 36 | 56 | 13 | 67 | 44 | 9.4 | 79 | 76 | 78 | 19 | 15
4 | C[C@H]1[C@H](C)CC[C@]2(C(=O)OCc3cn(-c4ccccc4Br)nn3)CC[C@]3(C)C(=CC[C@@H]4[C@@]5(C)CCC(=O)C(C)(C)[C@@H]5CC[C@]43C)[C@H]12 | 69 | 80 | 85 | 99 | 2 | 92 | < 0.1 | 99 | 41 | < 0.1 | 99 | 99 | 99 | 2.9 | 15
5 | COc1ccccc1-n1cc(COC(=O)[C@]23CC[C@@H](C)[C@H](C)[C@H]2C2=CC[C@@H]4[C@@]5(C)CCC(=O)C(C)(C)[C@@H]5CC[C@@]4(C)[C@]2(C)CC3)nn1 | > 50 | 87 | 79 | 28 | 5 | 82 | < 0.1 | 94 | 77 | < 0.1 | 93 | 91 | 94 | < 0.1 | 0.3
6 | C[C@H]1[C@H](C)CC[C@]2(C(=O)OCc3cn(-c4ccc(I)cc4)nn3)CC[C@]3(C)C(=CC[C@@H]4[C@@]5(C)CCC(=O)C(C)(C)[C@@H]5CC[C@]43C)[C@H]12 | – | – | – | – | – | – | – | 2 | – | – | 1 | 82 | 8 | – | –
7 | C[C@H]1[C@H](C)CC[C@]2(C(=O)OCc3cn(-c4ccc(C(F)(F)F)cc4)nn3)CC[C@]3(C)C(=CC[C@@H]4[C@@]5(C)CCC(=O)C(C)(C)[C@@H]5CC[C@]43C)[C@H]12 | – | – | – | – | – | – | – | 30 | – | – | 27 | 3 | 16 | – | –
8 | C[C@H]1[C@H](C)CC[C@]2(C(=O)OCc3cn(-c4cccc5ccccc45)nn3)CC[C@]3(C)C(=CC[C@@H]4[C@@]5(C)CCC(=O)C(C)(C)[C@@H]5CC[C@]43C)[C@H]12 | – | 40 | 27 | – | – | 47 | – | 50 | 2 | – | 75 | 80 | 76 | – | –
9 | C[C@H]1[C@H](C)CC[C@]2(C(=O)OCc3cn(-c4cccc(Br)c4)nn3)CC[C@]3(C)C(=CC[C@@H]4[C@@]5(C)CCC(=O)C(C)(C)[C@@H]5CC[C@]43C)[C@H]12 | – | – | – | – | – | – | – | 16 | – | – | 32 | 3 | 10 | – | –
10 | C#CCOC(=O)[C@]12CC[C@@H](C)[C@H](C)[C@H]1C1=CC[C@@H]3[C@@]4(C)CCC(=O)C(C)(C)[C@@H]4CC[C@@]3(C)[C@]1(C)CC2 | 24 | 22 | 50 | 86 | 33 | 42 | 56 | 78 | 74 | 13 | 88 | 42 | 96 | 15 | 2.3
11 | C[C@H]1[C@H](C)CC[C@]2(C(=O)OCc3cn(-c4ccccc4)nn3)CC[C@]3(C)C(=CC[C@@H]4[C@@]5(C)CCC(=O)C(C)(C)[C@@H]5CC[C@]43C)[C@H]12 | 82 | 28 | 43 | 45 | 12 | 54 | 39 | 64 | 44 | 11 | 83 | 51 | 78 | 24 | 14
12 | C[C@H]1[C@H](C)CC[C@]2(C(=O)OCc3cn(-c4ccccc4[N+](=O)[O-])nn3)CC[C@]3(C)C(=CC[C@@H]4[C@@]5(C)CCC(=O)C(C)(C)[C@@H]5CC[C@]43C)[C@H]12 | > 50 | 4 | 3 | 12 | 9 | 24 | > 50 | 39 | 45 | 48 | 54 | 42 | 65 | > 50 | 14
13 | C[C@H]1[C@H](C)CC[C@]2(C(=O)OCc3cn(-c4ccccc4C(F)(F)F)nn3)CC[C@]3(C)C(=CC[C@@H]4[C@@]5(C)CCC(=O)C(C)(C)[C@@H]5CC[C@]43C)[C@H]12 | – | – | – | – | – | – | – | 46 | – | – | 73 | 4 | 23 | – | –
14 | C[C@H]1[C@H](C)CC[C@]2(C(=O)OCc3cn(-c4ccccc4F)nn3)CC[C@]3(C)C(=CC[C@@H]4[C@@]5(C)CCC(=O)C(C)(C)[C@@H]5CC[C@]43C)[C@H]12 | – | – | – | – | – | – | – | 18 | – | – | 49 | 15 | 12 | – | –
15 | C[C@H]1[C@H](C)CC[C@]2(C(=O)OCc3cn(-c4ccc(Cl)cc4)nn3)CC[C@]3(C)C(=CC[C@@H]4[C@@]5(C)CCC(=O)C(C)(C)[C@@H]5CC[C@]43C)[C@H]12 | – | – | – | – | – | – | – | 26 | – | – | 9 | 52 | 49 | – | –
16 | C[C@H]1[C@H](C)CC[C@]2(C(=O)O)CC[C@]3(C)C(=CC[C@@H]4[C@@]5(C)CC[C@H](O)C(C)(C)[C@@H]5CC[C@]43C)[C@H]12 [URSOLIC ACID] | 31 | 36 | 28 | 66 | 31 | 31 | 37 | 61 | 55 | 9.1 | 84 | 57 | 53 | 33 | 42
17 | C[C@H]1[C@H](C)CC[C@]2(C(=O)OCc3cn(-c4ccccc4Cl)nn3)CC[C@]3(C)C(=CC[C@@H]4[C@@]5(C)CCC(=O)C(C)(C)[C@@H]5CC[C@]43C)[C@H]12 | > 50 | 81 | 77 | 35 | 9 | 80 | < 0.1 | 91 | 54 | < 0.1 | 96 | 95 | 93 | 0.15 | 9.1
